This series in a line: cn = amount concentration of the nth substance listed, in mol/dm3. The conditions noted are these: 101.3 kPa, Liquid, c1 = 2.

Numbers after ± are expanded uncertainties.

As usually defined, the viscosity is the internal friction of a fluid under shear. Consider `[Cl-].[Na+]` [sodium chloride] + O, for which the viscosity (298.15 K) is reported as 1.085 ± 0.014 mPa·s; the viscosity (303.15 K) came out at 0.9761 ± 0.013 mPa·s; the viscosity (308.15 K) is 0.8816 ± 0.012 mPa·s; the viscosity (313.15 K) is 0.8069 ± 0.011 mPa·s; the viscosity (318.15 K) stood at 0.7426 ± 0.01 mPa·s; the viscosity (323.15 K) is listed as 0.676 ± 0.0095 mPa·s. For the same compound, the viscosity (328.15 K) was determined as 0.6257 ± 0.0088 mPa·s.

With `O=[N+]([O-])[O-].[Na+]` [sodium nitrate] + O, the viscosity was determined as 1.036 ± 0.014 mPa·s (298.15 K); 0.9367 ± 0.013 mPa·s (303.15 K); 0.8519 ± 0.012 mPa·s (308.15 K); 0.7777 ± 0.011 mPa·s (313.15 K); 0.7167 ± 0.0099 mPa·s (318.15 K); 0.6559 ± 0.0092 mPa·s (323.15 K). Moreover, under “328.15 K”, the viscosity was 0.6043 ± 0.0086 mPa·s.
